Reference: patent US5576177A, “Bioassay for reverse transcriptase inhibitors” (St. Jude Children's Research Hospital, priority 1994, dated 1996)
Read-outs that look alike come from different tables or passages of the source.

Legend:
[1] = target: HIV-1 reverse transcriptase (HIV-1 M:B_HXB2R, UniProt P04585); assay: Inhibition of HIV-1 reverse transcriptase (TTP incorporation, poly[rA]-oligo[dT]12-18 primer-template); type: biochemical; details: for inhibition of reverse transcriptase activity (effect on reaction kinetics): at concentrations of up to 10,000 fmols
Experimental: (§1) Reverse transcriptase assays were performed using substantially purified HIV-1 reverse transcriptase and poly[rA]-oligo[dT]12-18 as primer-template. The reactions were carried out in a total volume of 10 μl; a 4.5 μl volume of the sample was mixed with an equal volume of a reaction mixture to provide a final concentration of 50 mM Tris (pH 8.5), 6 mM MgCl2, 10 mM dithiothreitol (DTT), 2.0 μg bovine serum albumin (BSA), 0.5 μCi TTP, 80 mM KCl, and 0.05% Triton X-100. The reaction was initiated by the addition of 1.0 μl of HIV reverse transcriptase (containing~1 ng protein; from American BioTechnology,Cambridge, Mass.; Cat. No. 26001). After 1 hour incubation at 37° C., the reaction was stopped by the addition of 5.0 μof stop buffer (50 mM EDTA+3% SDS). The reverse transcriptase products (polymerization products) were separated from the unincorporated label by chromatography on Sephadex G-25 (superfine) columns. The fractions corresponding to the void volume were collected and counted by scintillation counting.

[2] = test system: CEM cells; assay: Zidovudine triphosphate level in CEM cells by HPLC-radioactive method; type: in vitro ADME; details: 4 hr incubation with 1 μM zidovudine, n = 1
Experimental: (§2) Preparation of cell extracts. […] The cell pellets were resuspended in 1 ml of residual media and layered onto 150 μl of nyosil oil, and spun through the oil. The media above the oil layer was removed, and any residual media was removed by rinsing the area above the oil layer by two gentle water washes. Finally, the oil was removed and the cells were extracted with 70% methanol+15 mM Tris-HCl buffer (pH 7.4) for at least 15 min on ice. The debris was removed by centrifugation and the samples stored at -20° C. until required.
(§3) One fraction was analyzed by HPLC and zidovudine metabolites were quantitated by usual radioisotopic methods.
(§4) Buffers used in the separation procedure were A--0.005M ammonium phosphate at pH 4.0+10% methanol and B--0.7M ammonium phosphate at pH 4.6+10% methanol.
(§5) Cell extracts were analyzed and quantified by using the different assays as described in Materials and Methods. Statistical parameters represent the standard deviation of the mean (δ) of three determinations of parallel samples.

[3] = test system: CEM cells; assay: Zidovudine triphosphate level in CEM cells by HPLC-RIA; type: in vitro ADME; details: 4 hr incubation with 1 μM zidovudine, n = 3
Experimental: as §3, §5
CEM cells were extracted in the same manner as cultured peripheral blood mononuclear cell samples (see Materials and Methods). […] The samples were cleaned up using Waters Sep-pak C-18 cartridges. The cartridges were conditioned with 10% methanol and then rinsed with water. Each sample was applied separately and eluted with 50% methanol. The samples were vacuum desiccated to a volume under 500 μl and further purified with a 250 mm Whatman ODS-3 column. Buffer A was 35% methanol and buffer B was 50% methanol. The gradient was 15 min at 0% B followed by 20 min at 100% B with a flow rate of 0.5 ml/min and fractions collected every min. The fractions containing zidovudine were pooled and vacuum desiccated to dryness. […] The antibody was diluted 1:3 and preincubated with the sample 2 hours.

[4] = test system: CEM cells; assay: Zidovudine triphosphate level in CEM cells by reverse transcriptase bioassay; type: in vitro ADME; details: 4 hr incubation with 1 μM zidovudine, n = 3
Experimental: as §2
Reverse transcriptase assays were performed using substantially purified HIV-1 reverse transcriptase and poly[rA]-oligo[dT]12-18 as primer-template. The reactions were carried out in a total volume of 10 μl; a 4.5 μl volume of the sample was mixed with an equal volume of a reaction mixture to provide a final concentration of 50 mM Tris (pH 8.5), 6 mM MgCl2, 10 mM dithiothreitol (DTT), 2.0 μg bovine serum albumin (BSA), 0.5 μCi TTP, 80 mM KCl, and 0.05% Triton X-100. […] The fractions corresponding to the void volume were collected and counted by scintillation counting.
as §3
Cell extracts were analyzed and quantified by using the different assays as described in Materials and Methods. […]

[5] = test system: peripheral blood mononuclear cells; assay: Intracellular zidovudine triphosphate in peripheral blood mononuclear cells of HIV-infected volunteers (reverse transcriptase bioassay); type: in vivo, human
Experimental: Peripheral blood mononuclear cell isolation. Heparinized blood from normal human volunteers or asymptomatic HIV seropositive individuals was diluted 1:1 with HBSS, layered onto LSM (Ficoll hypaque) and then separated by centrifugation for 30 min at 400×g. The mononuclear cell layer was removed, washed once with growth media, counted, and pelleted by centrifugation. The cells were then resuspended in growth medium (RPMI containing 10% fetal calf serum) and the residual erythrocytes lysed by the addition of 3 volumes of cold water for 30 seconds. Erythrocyte lysis was stopped by the addition of 1 volume of 0.6M sodium chloride, and the mononuclear cells were pelleted by centrifugation.
Uncultured peripheral blood mononuclear cells from zidovudine-treated patients were resuspended in 1 ml of media and transferred to a 1.5 ml centrifuge tube, spun 1 min at 14,000 rpm, the media removed, and pulsed again to allow removal of any residual media. The cells were extracted for at least 15 min with 200 μl of ice cold 70% methanol per 1×10^7 cells. The cell debris was removed by centrifugation for 15 min at 14,000 rpm and the supernate stored in -20° C. until required for analysis. Prior to use, the extracts were dried under vacuum and resuspended in 50 μl of 5 mM Tris-HCl buffer (pH 8.5); extracts from 0.5×10^7 CEM cells or 1×10^7 cultured peripheral blood mononuclear cells were reconstituted in 200 μl buffer.
as §1
The zidovudine-free peripheral blood mononuclear cells from each individual at baseline (untreated) served as the cell background to construct the standard curve for zidovudine triphosphate determination.
(§6) Individuals in this study were HIV-infected individuals recruited from an area clinic. […] CD4 and CD8 cell counts were determined from baseline samples.

[6] = test system: peripheral blood mononuclear cells; details: AIDS patients receiving 300 mg oral zidovudine; cited from earlier work
[7] = test system: human immunodeficiency virus reverse transcriptase; details: cited from earlier work
[8] = test system: peripheral blood mononuclear cells; assay: Phosphorylation of zidovudine in peripheral blood mononuclear cells in vitro; type: in vitro ADME, human; details: proliferating compared to resting cells; 1 μM [^3 H]zidovudine
Experimental: Culture of human peripheral blood mononuclear cells. The peripheral blood mononuclear cells were suspended in growth media and transferred to plastic tissue culture flasks. The monocyte/macrophage cells were allowed to adhere to the flask for at least 60 min after which the non-adherent cells comprises primarily of lymphocytes were transferred to a new flask. The cells were stimulated by addition of 5 μg/ml of PHA-P and 10 units/ml of IL-2 and incubated for 72 hours at 37° C. prior to use. Fresh media was added every 24 hours to maintain the IL-2 concentration. If quiescent cells were required the PHA-P and IL-2 were omitted and the cells were used the following day.
as §2, §4

[9] = Plasma zidovudine concentrations and pharmacokinetics in HIV-infected volunteers (RIA); type: in vivo, human; details: for concentration at 1 h: po; for AUC: read-out: AUC (area under the curve), median; for half-life: read-out: t1/2 (half life), median (converted)
Experimental: Pharmacokinetic studies in patients. To assess the utility and sensitivity of the bioassay of the invention in patients, a clinical study was performed. The study was approved by the Institutional Review Board of St. Jude Children's Research Hospital and informed consent was obtained from each individual according to institutional procedures.
as §6
Prior distributions for the parameters were assumed to be log normally distributed with known but independent variances (i.e., no parameter covariance) and were taken from previous studies in similar patients (Flether et al., Pharmacotherapy 12:429-434 (1992)).
Plasma samples were heat inactivated at 56° C. for 4 hours prior to assay. The samples were diluted to obtain values within a standard curve range of 10-200 ng/ml with 200 μl of sample. […] Five-hundred μl of a secondary antibody precipitating complex was added and incubated for 20 min at room temperature. The resultant mixtures were centrifuged, the supernate decanted, and the precipitate counted using an LKB gamma counter connected to an IBM PC computer with an RIA Calif. LC software program.

[10] = 10 to 500 fmol, no cell extract
[11] = spiked with extract of peripheral blood mononuclear cells (about 10^6 cells)
[12] = human, plasma, 100 mg single oral dose
[13] = human, plasma, 500 mg single oral dose

Structure (SMILES): Cc1cn([C@H]2C[C@H](N=[N+]=[N-])[C@@H](CO[P@](=O)(O)O[P@](=O)(O)OP(=O)(O)O)O2)c(=O)[nH]c1=O [zidovudine triphosphate]
- coefficient of regression of linear inhibition kinetics [1, 10]: 0.99
- inhibition kinetics of HIV reverse transcriptase [1, 10]: linear inhibition kinetics
- R of linear inhibition kinetics [1, 11]: > 0.98
- inhibition kinetics of HIV reverse transcriptase [1, 11]: good linear kinetics
- Zidovudine Triphosphate [2]: 1.42 pmol/10^6 cells
- Zidovudine Triphosphate [3]: 1.50 ± 0.65 pmol/10^6 cells
- Zidovudine Triphosphate [4]: 1.39 ± 0.17 pmol/10^6 cells
- proportion of median plateau values ([5]; 500 mg vs 100 mg): 1.7
- time course of zidovudine triphosphate values ([5]; 1 to 6 hours after zidovudine): increased from 1 to 2 hours (Table 3 (below)) and then remained at a plateau value through 6 hours
- measurability of zidovudine triphosphate after zidovudine administration ([5]; 100 or 500 mg zidovudine): could be measured in all 12 volunteers
- Median Ratio (500/100) ([5]; 1 h): 8.4
- Median Ratio (500/100) ([5]; 2 h): 1.6
- Median Ratio (500/100) ([5]; 4 h): 1.5
- Median Ratio (500/100) ([5]; 6 h): 2.1
- % CV range of intracellular zidovudine triphosphate ([5]; after 100 or 500 mg zidovudine): 52-157%
- zidovudine triphosphate level relative to the patent's results [6]: 10 -fold higher
- inhibition of HIV reverse transcriptase [7]: potent inhibitor
- reverse transcriptase chain termination [7]: causes reverse transcriptase chain termination

Structure (SMILES): Cc1cn([C@H]2C[C@H](N=[N+]=[N-])[C@@H](COP(=O)(O)O)O2)c(=O)[nH]c1=O [zidovudine-MP]
- inhibition of reverse transcriptase activity (effect on reaction kinetics) [1]: did not affect the reaction kinetics

Structure (SMILES): Cc1cn([C@H]2C[C@H](N=[N+]=[N-])[C@@H](CO)O2)c(=O)[nH]c1=O [zidovudine, 3'-azido-3'-deoxythymidine]
- phosphorylation rate of zidovudine [8]: high phosphorylation rate
- Plasma Zidovudine ([9]; 100 mg single oral dose, 6 h, #ND = plasma zidovudine concentration below standard curve in 4 of 5 patients): ND#
- difference of CLo between dose groups ([9]; 100 mg vs 500 mg, p>0.2 by Mann-Whitney U test): not significantly different
- concentration at 1 h ([9]; human, plasma, 100 mg dose): 1790 nM
- concentration at 1 h ([9]; human, plasma, 500 mg dose): 6300 nM
- concentration at 2 h [9, 12]: 760 nM
- concentration at 4 h [9, 12]: 260 nM
- AUC [9, 12]: 1200 ng·h/mL
- half-life [9, 12]: 1.29 h
- concentration at 2 h [9, 13]: 3000 nM
- concentration at 4 h [9, 13]: 900 nM
- concentration at 6 h ([9]; human, plasma, 500 mg single oral dose, 6 h): 360 nM
- AUC [9, 13]: 4200 ng·h/mL
- half-life [9, 13]: 1.07 h

Structure (SMILES): Cc1cn([C@H]2C[C@H](O)[C@@H](COP(=O)(O)O)O2)c(=O)[nH]c1=O [thymidine monophosphate (TMP), thymidine monophosphate]
- inhibition of reverse transcriptase activity (effect on reaction kinetics) [1]: did not affect the reaction kinetics
